Measured values published in PubChem BioAssay AID248 (DTP/NCI, 2004).
Values joined by “and” are separate entries in the source; they are usually repeats but may differ in a detail not shown here. Identical values can stand only once. Toxic doses and inconclusive results are not listed. Rule as the data show it: active = T/C of 150% or more; inactive = T/C below 125%.

Tested on: L1210 leukemia ip in BDF1 mice, survival T/C
Assay: NCI In Vivo Anticancer Drug Screen. Data for tumor model L1210 Leukemia (intraperitoneal) in B6D2F1 (BDF1) mice
Conditions: endpoint: mean survival time, higher = longer survival
How it was run: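 Tumor cells were implanted, animals were treated, and survival was followed. The result divides the treated measurement by the vehicle-control measurement.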

[1] = dose: 100.0 mg/kg/injection, schedule: Q01DX001 (ip), vehicle: carboxymethylcellulose (CMC)
[2] = dose: 200.0 mg/kg/injection, schedule: Q01DX001 (ip), vehicle: carboxymethylcellulose (CMC)
[3] = dose: 400.0 mg/kg/injection, schedule: Q01DX001 (ip), vehicle: carboxymethylcellulose (CMC)
[4] = dose: 100.0 mg/kg/injection, schedule: Q04DX003 (ip), vehicle: saline with Tween-80
[5] = dose: 200.0 mg/kg/injection, schedule: Q04DX003 (ip), vehicle: saline with Tween-80
[6] = dose: 400.0 mg/kg/injection, schedule: Q04DX003 (ip), vehicle: saline with Tween-80

Measured: T/C

Clc1nc(I)c(Cl)c(I)n1
inactive: dose: 6.25 mg/kg/injection, schedule: Q01DX009 (ip), vehicle: other 119 % of control | dose: 12.5 mg/kg/injection, schedule: Q01DX009 (ip), vehicle: other 101 % of control | dose: 25.0 mg/kg/injection, schedule: Q01DX009 (ip), vehicle: other 94 % of control

CCOC(=O)NP(=O)(Nc1ccc(C)cc1)Nc1ccc(C)cc1
inactive: dose: 50.0 mg/kg/injection, schedule: Q01DX001 (ip), vehicle: carboxymethylcellulose (CMC) 104 % of control | [1] 98 % of control | [2] 95 % of control | [3] 98 % of control

CCOC(=O)CSC(=S)N1CCOCC1
inactive: dose: 100.0 mg/kg/injection, schedule: Q01DX001 (ip), vehicle: Klucel (hydroxypropylcellulose) (HPC) 94 % of control | dose: 200.0 mg/kg/injection, schedule: Q01DX001 (ip), vehicle: Klucel (hydroxypropylcellulose) (HPC) 97 % of control | dose: 400.0 mg/kg/injection, schedule: Q01DX001 (ip), vehicle: Klucel (hydroxypropylcellulose) (HPC) 102 % of control

CCNCCCCNCC
inactive: dose: 25.0 mg/kg/injection, schedule: Q01DX009 (ip), vehicle: saline with Tween-80 95 % of control | dose: 25.0 mg/kg/injection, schedule: Q04DX003 (ip), vehicle: saline with Tween-80 98 % of control | dose: 50.0 mg/kg/injection, schedule: Q01DX009 (ip), vehicle: saline with Tween-80 101 % of control | dose: 50.0 mg/kg/injection, schedule: Q04DX003 (ip), vehicle: saline with Tween-80 91 % of control | [4] 94 % of control and 87 % of control

C=C(C)COc1c(C)cc(C)cc1C=Nc1ccccc1
inactive: [4] 109 % of control | [5] 106 % of control | [6] 105 % of control

CCOC(=O)c1[nH]cnc1/N=N/N(C)C1CCCCC1
inactive: dose: 85.0 mg/kg/injection, schedule: Q01DX015 (ip), vehicle: carboxymethylcellulose (CMC) 103 % of control | [1] 98 % of control | dose: 114.0 mg/kg/injection, schedule: Q01DX015 (ip), vehicle: carboxymethylcellulose (CMC) 107 % of control | [2] 109 % of control | [3] 102 % of control

Cc1cc(N(CCCOS(C)(=O)=O)CCCOS(C)(=O)=O)ccc1C=Nc1cc(Br)c(O)c(Br)c1
inactive: dose: 100.0 mg/kg/injection, schedule: Q01DX009 (ip), vehicle: saline with Tween-80 94 % of control | [4] 92 % of control | dose: 200.0 mg/kg/injection, schedule: Q01DX009 (ip), vehicle: saline with Tween-80 94 % of control | [5] 90 % of control | dose: 400.0 mg/kg/injection, schedule: Q01DX009 (ip), vehicle: saline with Tween-80 89 % of control | [6] 94 % of control

C[n+]1c2ccccc2c(N=[N+]=[N-])c2ccccc21
inactive: dose: 6.25 mg/kg/injection, schedule: Q01DX001 (ip), vehicle: suspension in saline 98 % of control | dose: 12.5 mg/kg/injection, schedule: Q01DX001 (ip), vehicle: suspension in saline 98 % of control | dose: 12.5 mg/kg/injection, schedule: Q04DX003 (ip), vehicle: suspension in saline 97 % of control | dose: 25.0 mg/kg/injection, schedule: Q01DX001 (ip), vehicle: suspension in saline 98 % of control | dose: 25.0 mg/kg/injection, schedule: Q04DX003 (ip), vehicle: suspension in saline 95 % of control | dose: 50.0 mg/kg/injection, schedule: Q04DX003 (ip), vehicle: suspension in saline 105 % of control
